The source made the active and inactive calls.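 The calls were made as follows: active = EC50 of 30 microM or lower and a span of response of at least a set limit; inactive = the rest.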
Biological target: Ras-related C3 botulinum toxin substrate 1 (Homo sapiens) (UniProt P63000)
Experiment: activated mutant Rac1 GTP binding inhibitors, SAR follow-up, biochemical, oxadiazole analogs, multiplex bead flow cytometry (AID 2051)
Details: Bead-based flow cytometry, Bodipy-FL-GTP binding to GST-Rac1; for Ki: measured here: Ki calculated from EC50

| SMILES | EC50 | Ki |
| --- | --- | --- |
| COc1ccc(-c2noc(CCC(=O)N3CCC(c4cc(C)ccc4C)CC3)n2)cc1 | inactive | 230 nM |
| COc1ccc(-c2noc(CCC(=O)N3CCN(c4ccc(Br)cc4)CC3)n2)cc1 | inactive | 300 nM |
| COc1ccc(-c2cccc(CCC(=O)N3CCN(c4cc(C)ccc4C)CC3)c2)cc1 | inactive | 910 nM |
| Cc1ccc(-c2noc(CCC(=O)N3CCN(c4cc(C)ccc4C)CC3)n2)cc1 | 3320 nM | 300 nM |
| Cc1ccc(C)c(N2CCN(C(=O)CCc3nc(-c4ccccc4C)no3)CC2)c1 | 2010 nM | 180 nM |
| COc1ccc(-c2noc(CCCC(=O)N3CCN(c4cc(C)ccc4C)CC3)n2)cc1 | 8220 nM | 750 nM |
| COc1ccc(-c2noc(CCC(=O)N3CCN(c4ccccc4OC)CC3)n2)cc1 | 3800 nM | 350 nM |
| COc1ccc(-c2noc(CCC(=O)N3CCN(c4ccc(OC)cc4)CC3)n2)cc1 | inactive | 60 nM |
| Cc1ccc(C)c(N2CCN(C(=O)CCc3nc(-c4cccc(Br)c4)no3)CC2)c1 | 2140 nM | 190 nM |
| COc1ccc(-c2noc(CCC(=O)N3CCN(c4ccccc4F)CC3)n2)cc1 | 2510 nM | 230 nM |
| COc1ccc(-c2noc(CCC(=O)N3CCN(c4ccccc4)CC3)n2)cc1 | inactive | 160 nM |
| COc1ccc(-c2ccc(CCC(=O)N3CCN(c4cc(C)ccc4C)CC3)[nH]2)cc1 | inactive | 480 nM |
| COc1ccc(-c2noc(CCC(=O)N3CCN(c4ccccc4C(F)(F)F)CC3)n2)cc1 | 2010 nM | 180 nM |
| COc1ccc(-c2cc(CCC(=O)N3CCN(c4cc(C)ccc4C)CC3)on2)cc1 | inactive | 190 nM |
| Cc1ccc(C)c(N2CCN(C(=O)CCc3nc(-c4cccc(F)c4)no3)CC2)c1 | 2550 nM | 230 nM |
| COc1ccc(-c2noc(CCC(=O)N3CCN(c4ccc(F)cc4)CC3)n2)cc1 | inactive | 80 nM |
| Cc1ccc(C)c(N2CCN(C(=O)CCc3nc(-c4cccc(C(F)(F)F)c4)no3)CC2)c1 | 3380 nM | 310 nM |
| COc1ccc(-c2ccc(CCC(=O)N3CCN(c4cc(C)ccc4C)CC3)o2)cc1 | inactive |  |
| Cc1ccc(C)c(N2CCN(C(=O)CCc3nc(-c4ccc(F)cc4)no3)CC2)c1 | 1370 nM | 120 nM |
| COc1ccc(-c2noc(CCC(=O)N3CCN(c4cccc(C)c4)CC3)n2)cc1 | inactive |  |
| COc1ccc(-c2noc(CCC(=O)N3CCN(c4cccc(Cl)c4)CC3)n2)cc1 | 7340 nM | 670 nM |
| Cc1ccc(C)c(N2CCN(C(=O)CCc3nc(-c4ccccc4F)no3)CC2)c1 | 2250 nM | 200 nM |
| COc1ccc(-c2noc(CCC(=O)N3CCN(c4cccc(C(F)(F)F)c4)CC3)n2)cc1 | inactive | 830 nM |
| Cc1ccc(C)c(N2CCN(C(=O)CCc3nc(-c4ccccc4C(F)(F)F)no3)CC2)c1 | 2700 nM | 250 nM |
| COc1ccc(-c2noc(CC(=O)N3CCN(c4cc(C)ccc4C)CC3)n2)cc1 | inactive | 1320 nM |
| Cc1ccc(C)c(N2CCN(C(=O)CCc3nc(-c4ccccc4Cl)no3)CC2)c1 | 1370 nM | 120 nM |

| SMILES | EC50 | Ki |
| --- | --- | --- |
| COc1ccc(-c2noc(CCC(=O)N3CCN(c4cccc(OC)c4)CC3)n2)cc1 | inactive | 890 nM |
| COc1ccc(-c2noc(CCC(=O)N3CCN(c4cc(C)ccc4C)CC3)n2)cc1 | 5900 nM | 540 nM |
| COc1ccc(-c2ccc(CCC(=O)N3CCN(c4cc(C)ccc4C)CC3)s2)cc1 | inactive |  |
| COc1ccc(-c2noc(CCC(=O)N3CCN(c4ccc(C(F)(F)F)cc4)CC3)n2)cc1 | inactive |  |
| Cc1ccc(C)c(N2CCN(C(=O)CCc3nc(-c4ccc(Br)cc4)no3)CC2)c1 | 3020 nM | 270 nM |
| COc1ccc(-c2noc(CCC(=O)N3CCN(c4cccc(C)c4C)CC3)n2)cc1 | 1540 nM | 140 nM |
| Cc1ccc(C)c(N2CCN(C(=O)CCc3nc(-c4ccc(Cl)cc4)no3)CC2)c1 | 2250 nM | 200 nM |
| COc1ccc(-c2noc(CCC(=O)N3CCN(c4ccc(C)cc4)CC3)n2)cc1 | inactive | 140 nM |
| COc1ccc(-c2noc(CCC(=O)N3CCN(c4ccc(Cl)cc4)CC3)n2)cc1 | inactive |  |
| COc1ccc(-c2noc(CCCCC(=O)N3CCN(c4cc(C)ccc4C)CC3)n2)cc1 | inactive | 1060 nM |
| Cc1ccc(C)c(N2CCN(C(=O)CCc3nc(-c4ccccc4)no3)CC2)c1 | 2790 nM | 250 nM |
| COc1ccc(-c2noc(CCC(=O)N3CCN(c4ccccc4Br)CC3)n2)cc1 | 2240 nM | 200 nM |
| COc1ccc(-c2coc(CCC(=O)N3CCN(c4cc(C)ccc4C)CC3)n2)cc1 | 2840 nM | 260 nM |
| COc1ccc(-c2noc(CCC(=O)N3CCN(c4cccc(F)c4)CC3)n2)cc1 | inactive |  |
| COc1ccccc1-c1noc(CCC(=O)N2CCN(c3cc(C)ccc3C)CC2)n1 | inactive | 480 nM |
| Cc1ccc(C)c(N2CCN(C(=O)CCc3nc(-c4cccc(Cl)c4)no3)CC2)c1 | 5120 nM | 470 nM |
| Cc1ccc(C)c(N2CCN(C(=O)CCc3nc(-c4ccc(C(F)(F)F)cc4)no3)CC2)c1 | 1950 nM | 180 nM |
| COc1ccc(-c2noc(CCC(=O)N3CCN(c4ccccc4Cl)CC3)n2)cc1 | 4940 nM | 450 nM |
| Cc1ccc(C)c(N2CCN(C(=O)CCc3nc(-c4ccc(N(C)C)cc4)no3)CC2)c1 | 4100 nM | 370 nM |
| Cc1ccc(C)c(N2CCN(C(=O)CCc3nc(-c4ccccc4Br)no3)CC2)c1 | 2150 nM | 200 nM |
| COc1ccc(-c2noc(CCC(=O)N3CCN(c4ccccc4C)CC3)n2)cc1 | 1480 nM | 130 nM |
| COc1ccc(-c2noc(CCC(=O)N3CCN(c4cccc(Br)c4)CC3)n2)cc1 | 20600 nM | 1870 nM |
| Cc1cccc(-c2noc(CCC(=O)N3CCN(c4cc(C)ccc4C)CC3)n2)c1 | 1920 nM | 170 nM |
| COc1ccc(-c2cc(CCC(=O)N3CCN(c4cc(C)ccc4C)CC3)[nH]n2)cc1 | inactive |  |
| COc1cccc(-c2noc(CCC(=O)N3CCN(c4cc(C)ccc4C)CC3)n2)c1 | 5780 nM | 530 nM |
